Reference: patent publication EP3782997A1, “FUSED PYRIMIDINE COMPOUNDS AND PHARMACEUTICAL COMPOSITIONS THEREOF FOR THE TREATMENT OF FIBROTIC DISEASES” (Galapagos N.V., priority 2019, dated 2021)

Biological target: hENPP2 (Homo sapiens, UniProt Q13822)
Assay: Human ENPP2 (hENPP2) biochemical assay using LPC as substrate
Details: 150 µM LPC (palmitoyl 16:0), 37°C for 30 min
Method in brief: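 Enzyme at 1 or 3 µg/mL final in Tris-HCl pH 8.5, NaCl, KCl, CaCl2, fatty-acid-free BSA; reaction started with 150 µM LPC 16:0 (as added), 30 min at 37°C. Released choline developed with choline oxidase/peroxidase/TOOS/4-aminoantipyrine plus EGTA stop, read at 555 nm after 30 min; 1/3 dilutions from 50 µM give IC50.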

`Cc1cc(C)cc(Nc2ncc3c(n2)CN([C@@H]2CCN(C(=O)c4cn(C)nn4)[C@H](C)C2)C3)c1` [compound 161, [(2R,4R)-4-[2-(3,5-dimethylanilino)-5,7-dihydropyrrolo[3,4-d]pyrimidin-6-yl]-2-methyl-1-piperidyl]-(1-methyltriazol-4-yl)methanone] was tested, and the IC50 was greater than 1000 nM.

`Cc1cc(C)cc(Nc2ncc3c(n2)CCN(C2CCN(C(=O)c4c[nH]nn4)CC2)C3)c1` [compound 162, [4-[2-(3,5-dimethylanilino)-7,8-dihydro-5H-pyrido[4,3-d]pyrimidin-6-yl]-1-piperidyl]-(1H-triazol-4-yl)methanone] gave an IC50 greater than 1000 nM.

Molecule `Cc1cc(C)cc(Nc2ncc3c(n2)CN([C@@H]2CCN(C(=O)c4cc5nn[nH]c5cc4C)[C@H](C)C2)C3)c1` [compound 163, [(2R,4R)-4-[2-(3,5-dimethylanilino)-5,7-dihydropyrrolo[3,4-d]pyrimidin-6-yl]-2-methyl-1-piperidyl]-(6-methyl-1H-benzotriazol-5-yl)methanone] has an IC50 of 0.01 to 100 nM.

`C[C@@H]1C[C@@H](N2Cc3cnc(Nc4ccccc4)nc3C2)CCN1C(=O)c1ccc2[nH]nnc2c1` [compound 165, [(2R,4S)-4-(2-anilino-5,7-dihydropyrrolo[3,4-d]pyrimidin-6-yl)-2-methyl-1-piperidyl]-(1H-benzotriazol-5-yl)methanone] showed an IC50 greater than 1000 nM.

Molecule `C[C@@H]1C[C@H](N2Cc3cnc(Nc4ccccc4)nc3C2)CCN1C(=O)c1ccc2[nH]nnc2c1` [compound 166, [(2R,4R)-4-(2-anilino-5,7-dihydropyrrolo[3,4-d]pyrimidin-6-yl)-2-methyl-1-piperidyl]-(1H-benzotriazol-5-yl)methanone] has an IC50 of 100 to 500 nM.

With `Cc1cc(C)cc(Nc2ncc3c(n2)CN([C@@H]2CCN(C(=O)c4ccc5[nH]nnc5c4C)[C@H](C)C2)C3)c1` [compound 168, [(2R,4R)-4-[2-(3,5-dimethylanilino)-5,7-dihydropyrrolo[3,4-d]pyrimidin-6-yl]-2-methyl-1-piperidyl]-(4-methyl-1H-benzotriazol-5-yl)methanone] the IC50 was 0.01 to 100 nM.

Work on `COc1cccc(Nc2ncc3c(n2)CN([C@H]2CCN(C(=O)c4ccc5[nH]nnc5c4)[C@H](C)C2)C3)c1` [compound 170, 1H-benzotriazol-5-yl-[(2R,4S)-4-[2-(3-methoxyanilino)-5,7-dihydropyrrolo[3,4-d]pyrimidin-6-yl]-2-methyl-1-piperidyl]methanone] yielded an IC50 of 100 to 500 nM.

`COc1cccc(Nc2ncc3c(n2)CN([C@@H]2CCN(C(=O)c4ccc5[nH]nnc5c4)[C@H](C)C2)C3)c1` [compound 171, 1H-benzotriazol-5-yl-[(2R,4R)-4-[2-(3-methoxyanilino)-5,7-dihydropyrrolo[3,4-d]pyrimidin-6-yl]-2-methyl-1-piperidyl]methanone] was tested, and the IC50 was 0.01 to 100 nM.

`C[C@@H]1C[C@H](N2Cc3cnc(Nc4ccc(F)cc4)nc3C2)CCN1C(=O)c1c[nH]nn1` [compound 173, [(2R,4R)-4-[2-(4-fluoroanilino)-5,7-dihydropyrrolo[3,4-d]pyrimidin-6-yl]-2-methyl-1-piperidyl]-(1H-triazol-4-yl)methanone] was tested, and the IC50 was greater than 1000 nM.

In the case of `Cc1cc(C)cc(Nc2ncc3c(n2)CCN(C2CCN(C(=O)c4ccnc(NS(C)(=O)=O)c4)CC2)C3)c1` [compound 174, N-[4-[4-[2-(3,5-dimethylanilino)-7,8-dihydro-5H-pyrido[4,3-d]pyrimidin-6-yl]piperidine-1-carbonyl]-2-pyridyl]methanesulfonamide], the IC50 is reported as greater than 1000 nM.

Work on `C[C@@H]1C[C@H](N2Cc3cnc(Nc4ccc(C(F)(F)F)cc4)nc3C2)CCN1C(=O)c1c[nH]nn1` [compound 175, [(2R,4R)-2-methyl-4-[2-[4-(trifluoromethyl)anilino]-5,7-dihydropyrrolo[3,4-d]pyrimidin-6-yl]-1-piperidyl]-(1H-triazol-4-yl)methanone] yielded an IC50 of 0.01 to 100 nM.

`Cc1cc(C)cc(Nc2ncc3c(n2)CN([C@@H]2CCN(C(=O)c4nn[nH]c4C)[C@H](C)C2)C3)c1` [compound 176, [(2R,4R)-4-[2-(3,5-dimethylanilino)-5,7-dihydropyrrolo[3,4-d]pyrimidin-6-yl]-2-methyl-1-piperidyl]-(5-methyl-1H-triazol-4-yl)methanone] showed an IC50 of 0.01 to 100 nM.

`C[C@@H]1C[C@H](N2Cc3cnc(Nc4ccc(S(F)(F)(F)(F)F)cc4)nc3C2)CCN1C(=O)c1ccnc(NS(C)(=O)=O)c1` [compound 177, N-[4-[(2R,4R)-2-methyl-4-[2-[4-(pentafluoro-λ^6-sulfanyl)anilino]-5,7-dihydropyrrolo[3,4-d]pyrimidin-6-yl]piperidine-1-carbonyl]-2-pyridyl]methanesulfonamide] was tested, and the IC50 was 0.01 to 100 nM.

`C[C@@H]1C[C@@H](N2Cc3cnc(Nc4ccc(S(F)(F)(F)(F)F)cc4)nc3C2)CCN1C(=O)c1ccnc(NS(C)(=O)=O)c1` [compound 178, N-[4-[(2R,4S)-2-methyl-4-[2-[4-(pentafluoro-λ^6-sulfanyl)anilino]-5,7-dihydropyrrolo[3,4-d]pyrimidin-6-yl]piperidine-1-carbonyl]-2-pyridyl]methanesulfonamide] showed an IC50 of 0.01 to 100 nM.

Work on `C[C@@H]1C[C@H](N2Cc3cnc(Nc4ccc(Cl)cc4)nc3C2)CCN1C(=O)c1ccnc(NS(C)(=O)=O)c1` [compound 179, N-[4-[(2R,4R)-4-[2-(4-chloroanilino)-5,7-dihydropyrrolo[3,4-d]pyrimidin-6-yl]-2-methyl-piperidine-1-carbonyl]-2-pyridyl]methanesulfonamide] yielded an IC50 of 0.01 to 100 nM.

With `C[C@@H]1C[C@@H](N2Cc3cnc(Nc4ccc(Cl)cc4)nc3C2)CCN1C(=O)c1ccnc(NS(C)(=O)=O)c1` [compound 180, N-[4-[(2R,4S)-4-[2-(4-chloroanilino)-5,7-dihydropyrrolo[3,4-d]pyrimidin-6-yl]-2-methyl-piperidine-1-carbonyl]-2-pyridyl]methanesulfonamide] the IC50 was 100 to 500 nM.

For `Cc1ccc(Nc2ncc3c(n2)CN([C@@H]2CCN(C(=O)c4ccnc(NS(C)(=O)=O)c4)[C@H](C)C2)C3)cc1` [compound 181, N-[4-[(2R,4R)-2-methyl-4-[2-(4-methylanilino)-5,7-dihydropyrrolo[3,4-d]pyrimidin-6-yl]piperidine-1-carbonyl]-2-pyridyl]methanesulfonamide], the IC50 was 0.01 to 100 nM.

In the case of `Cc1ccc(Nc2ncc3c(n2)CN([C@H]2CCN(C(=O)c4ccnc(NS(C)(=O)=O)c4)[C@H](C)C2)C3)cc1` [compound 182, N-[4-[(2R,4S)-2-methyl-4-[2-(4-methylanilino)-5,7-dihydropyrrolo[3,4-d]pyrimidin-6-yl]piperidine-1-carbonyl]-2-pyridyl]methanesulfonamide], the IC50 is reported as 500 to 1000 nM.

`Cc1cc2[nH]nnc2cc1C(=O)N1CC[C@@H](N2Cc3cnc(Nc4ccc(C(F)(F)F)cc4)nc3C2)C[C@H]1C` [compound 183, (6-methyl-1H-benzotriazol-5-yl)-[(2R,4R)-2-methyl-4-[2-[4-(trifluoromethyl)anilino]-5,7-dihydropyrrolo[3,4-d]pyrimidin-6-yl]-1-piperidyl]methanone] was tested, and the IC50 was 0.01 to 100 nM.

Molecule `COc1cc(C)cc(Nc2ncc3c(n2)CN([C@@H]2CCN(C(=O)c4cc5nn[nH]c5cc4C)[C@H](C)C2)C3)c1` [compound 184, [(2R,4R)-4-[2-(3-methoxy-5-methyl-anilino)-5,7-dihydropyrrolo[3,4-d]pyrimidin-6-yl]-2-methyl-1-piperidyl]-(6-methyl-1H-benzotriazol-5-yl)methanone] has an IC50 of 0.01 to 100 nM.

For `COc1cc(C)cc(Nc2ncc3c(n2)CN([C@H]2CCN(C(=O)c4cc5nn[nH]c5cc4C)[C@H](C)C2)C3)c1` [compound 185, [(2R,4S)-4-[2-(3-methoxy-5-methyl-anilino)-5,7-dihydropyrrolo[3,4-d]pyrimidin-6-yl]-2-methyl-1-piperidyl]-(6-methyl-1H-benzotriazol-5-yl)methanone], the IC50 was 0.01 to 100 nM.

Molecule `C[C@@H]1C[C@H](N2Cc3cnc(Nc4ccc(C(F)(F)F)cc4)nc3C2)CCN1C(=O)c1ccnc(NS(C)(=O)=O)c1` [compound 186, N-[4-[(2R,4R)-2-methyl-4-[2-[4-(trifluoromethyl)anilino]-5,7-dihydropyrrolo[3,4-d]pyrimidin-6-yl]piperidine-1-carbonyl]-2-pyridyl]methanesulfonamide] has an IC50 of 0.01 to 100 nM.

`COc1cc(C)cc(Nc2ncc3c(n2)CN([C@@H]2CCN(C(=O)c4ccnc(NS(C)(=O)=O)c4)[C@H](C)C2)C3)c1` [compound 187, N-[4-[(2R,4R)-4-[2-(3-methoxy-5-methyl-anilino)-5,7-dihydropyrrolo[3,4-d]pyrimidin-6-yl]-2-methyl-piperidine-1-carbonyl]-2-pyridyl]methanesulfonamide] showed an IC50 of 0.01 to 100 nM.

`C[C@@H]1C[C@H](N2Cc3cnc(Nc4ccc(F)cc4)nc3C2)CCN1C(=O)c1ccnc(NS(C)(=O)=O)c1` [compound 188, N-[4-[(2R,4R)-4-[2-(4-fluoroanilino)-5,7-dihydropyrrolo[3,4-d]pyrimidin-6-yl]-2-methyl-piperidine-1-carbonyl]-2-pyridyl]methanesulfonamide] gave an IC50 of 0.01 to 100 nM.

In the case of `COc1cccc(Nc2ncc3c(n2)CN([C@@H]2CCN(C(=O)c4ccnc(NS(C)(=O)=O)c4)[C@H](C)C2)C3)c1` [compound 189, N-[4-[(2R,4R)-4-[2-(3-methoxyanilino)-5,7-dihydropyrrolo[3,4-d]pyrimidin-6-yl]-2-methyl-piperidine-1-carbonyl]-2-pyridyl]methanesulfonamide], the IC50 is reported as 0.01 to 100 nM.

For `C[C@@H]1C[C@@H](N2Cc3cnc(Nc4ccc(C(F)(F)F)cc4)nc3C2)CCN1C(=O)c1ccnc(NS(C)(=O)=O)c1` [compound 190, N-[4-[(2R,4S)-2-methyl-4-[2-[4-(trifluoromethyl)anilino]-5,7-dihydropyrrolo[3,4-d]pyrimidin-6-yl]piperidine-1-carbonyl]-2-pyridyl]methanesulfonamide], the IC50 was 0.01 to 100 nM.

`COc1cc(C)cc(Nc2ncc3c(n2)CN([C@H]2CCN(C(=O)c4ccnc(NS(C)(=O)=O)c4)[C@H](C)C2)C3)c1` [compound 191, N-[4-[(2R,4S)-4-[2-(3-methoxy-5-methyl-anilino)-5,7-dihydropyrrolo[3,4-d]pyrimidin-6-yl]-2-methyl-piperidine-1-carbonyl]-2-pyridyl]methanesulfonamide] was tested, and the IC50 was 100 to 500 nM.
